Several values for one entry are separate records, joined by “and”; a condition that tells them apart may be missing. Identical values can stand only once. One block for each compound: values may come before it.
Experiments:
Assay type in all cases: physicochemical
[1] = Slurry of Arginine and TRIS salts to determine stability (competitive slurry); details: for form after slurry by XRPD: MeOH/H2O (90:10), temperature cycling 40° C. and RT, 4 hour periods, 5 days; for relative stability of the two forms: competitive slurry, MeOH/H2O (90:10) and EtOH/H2O (90:10)
Description: Both Arginine and TRIS salt forms of compound I prepared as described above were slurried in 2˜4 different solvents including aqueous mixes to further determine the stability of the new salt forms. The solids were then dried and analyzed by XRPD and Raman to check for changes in physical and/or chemical form.

[2] = Storage, drying and light stability of sodium salt forms, by XRPD; details: for physical change in light study by XRPD: 5 day light studies; for time in which material reverts to Form II: 5 day stability study, 40° C./75% RH; for physical change on storage by XRPD: about 80° C. over about 5 days
[3] = Gravimetric Vapor Sorption (GVS) of sodium salt polymorphs; details: for XRPD analysis of the post-GVS experiment sample: after GVS; for GVS desorption: sample retains water until: mass drops significantly there; for hydroscopicity by GVS: qualitative
[4] = Micronization of Arginine and TRIS salts, physical form check; details: micronized vs pre-micronized
Description: Both Arginine and TRIS salt forms of compound I prepared as described above were micronized at Pharmaterials in preparation for PK studies. Particle size reduction was done using a Sturtevant Qualification Micronizer® (Sturtevant Inc. Hanover Mass., USA) with dry nitrogen gas as feed and grind gas. To avoid clogging of the venturi and feed nozzle, the polymorph was initially ground using a pestle and motor to break down large particles. Grinding was done at room temperature using the following settings: • Feed air pressure: 80 psi • Grind air pressure: 100 psi
The micronized polymorph was collected from the exhaust bag and put in a glass vial pending further analysis. The material was then analyzed for particle size distribution based on a method established and applied to each batch. […] The samples were also analyzed by HPLC to determine chemical purity.

[5] = Short term accelerated stability study of Arginine and TRIS salts; details: 40° C./75% RH; for change by XRPD and DSC: 4 week period; for HPLC impurity after storage: after 4 weeks
Description: Arginine and TRIS salts of compound I prepared as described above were stored at 40° C./75% RH. Each sample was assessed at 0,1 week, 2 weeks and 4 weeks by XRPD, DSC and HPLC assess the stability of each salt.

[6] = Determination of particle size distribution (Malvern Mastersizer); details: for d50, 3 times / d90, 3 times: single measurements
Description: Particle size analysis of the pre-milled and post-milled TRIS and arginine salts was carried out using the Malvern Mastersizer, Model Micro Plus. Backgrounds were first measured using the appropriate vehicle solution as diluent (Dimethyl Siloxane). The samples were added drop-wise until a suitable obscuration value was achieved, and particle size distribution measured. A minimum of three analyses were made for each sample.

[7] = Intrinsic solubility / dissolution rate of salts and polymorphs (FIGS. 82-83); details: qualitative; for ease of dissolution: FIGS. 82-83
[8] = Solubility in organic solvents, sodium salt vs free acid (FIG. 81); details: compared with the acid
[9] = Water solubility of compound (I) acid and its salts; details: qualitative, acid form vs salts

- relative stability of the two forms [1]: more stable
- DSC change after micronization [4]: no significant change
- change by XRPD and DSC [5]: no significant change
- HPLC impurity after storage [5]: no additional impurity
- d50, Average ([6]; micronized): 6.0 μm
- d90, Average ([6]; micronized): 10.5 μm
- d50, 3 times ([6]; micronized): 6.12 μm and 6.03 μm and 5.99 μm
- d90, 3 times ([6]; micronized): 10.72 μm and 10.51 μm and 10.41 μm
- d50, Average ([6]; pre-micronized): 10.0 μm
- d90, Average ([6]; pre-micronized): 23.4 μm
- d50, 3 times ([6]; pre-micronized): 9.97 μm and 9.98 μm and 10.06 μm
- d90, 3 times ([6]; pre-micronized): 23.26 μm and 23.15 μm and 23.68 μm
- ease of dissolution [7]: particularly easily dissolved
SMILES: O=C(O)c1ccc2c(c1)nc(Nc1cccc(Cl)c1)c1ccncc12 [Form XXII, 5-(3-chlorophenylamino)benzo[c][2,6]naphthyridine-8-carboxylic acid]
- XRPD change after micronization [4]: no significant change in crystalline structure

- physical change in light study by XRPD [2]: no physical change
- time in which material reverts to Form II [2]: ≤ 24 h
- physical change on storage by XRPD [2]: less crystalline appearance
- XRPD analysis of the post-GVS experiment sample [3]: amorphous content
- GVS desorption: sample retains water until [3]: 5%
- hydroscopicity by GVS [3]: hydroscopic
- GVS water absorbed on sorption ([3]; sorption): 11%
SMILES: O=C(O)c1ccc2c(c1)nc(Nc1cccc(Cl)c1)c1ccncc12 [Form III, 5-(3-chlorophenylamino)benzo[c][2,6]naphthyridine-8-carboxylic acid]

- physical form on storage ([2]; dry conditions less than 30° C.): stay amorphous
SMILES: O=C(O)c1ccc2c(c1)nc(Nc1cccc(Cl)c1)c1ccncc12 [Form I, 5-(3-chlorophenylamino)benzo[c][2,6]naphthyridine-8-carboxylic acid]
- solubility in organic solvents [8]: more soluble in organic solvents than the acid
- solubility relative to other polymorphs [7]: significantly more soluble than other polymorphs

- form after drying ([2]; 80° C. for about 24 hours and prolonged drying at 60° C.): converted to amorphous material
- GVS uptake of water ([3]; 20-70% RH): about 12%
- GVS weight gain ([3]; RH range of about 10% to about 70%): about 8%
- form conversion in the GVS cycle ([3]; about 10% to about 90% RH, repeated): No further form conversion was observed
- XRPD analysis of the post-GVS experiment sample [3]: amorphous content
- hydroscopicity by GVS [3]: moderate
SMILES: O=C(O)c1ccc2c(c1)nc(Nc1cccc(Cl)c1)c1ccncc12 [Form II, 5-(3-chlorophenylamino)benzo[c][2,6]naphthyridine-8-carboxylic acid]
- solubility relative to other polymorphs [7]: significantly more soluble than other polymorphs

- water solubility [9]: very low
SMILES: O=C(O)c1ccc2c(c1)nc(Nc1cccc(Cl)c1)c1ccncc12 [Compound I, 5-(3-chlorophenylamino)benzo[c][2,6]naphthyridine-8-carboxylic acid]

The remaining lines, values behind:

SMILES: O=C(O)c1ccc2c(c1)nc(Nc1cccc(Cl)c1)c1ccncc12 [Form XXI-B, 5-(3-chlorophenylamino)benzo[c][2,6]naphthyridine-8-carboxylic acid]
- form after slurry by XRPD [1]: complete conversion to Form XXI

SMILES: O=C(O)c1ccc2c(c1)nc(Nc1cccc(Cl)c1)c1ccncc12 [Form VII, 5-(3-chlorophenylamino)benzo[c][2,6]naphthyridine-8-carboxylic acid]
- stability by XRPD ([2]; ambient conditions and 40° C./75% relative humidity, seven days): stable

SMILES: O=C(O)c1ccc2c(c1)nc(Nc1cccc(Cl)c1)c1ccncc12 [Form IV, 5-(3-chlorophenylamino)benzo[c][2,6]naphthyridine-8-carboxylic acid]
- physical change in light study by XRPD [2]: no physical change
- time in which material reverts to Form II [2]: ≤ 24 h
- physical change on storage by XRPD [2]: no physical change
- form after drying ([2]; drying at 50° C.): converts to another crystalline polymorph
- GVS uptake of water on sorption ([3]; about 20-60% RH): about 1%
- GVS further rapid uptake ([3]; about 60-70% RH): approximately 8%
- XRPD analysis of the post-GVS experiment sample [3]: amorphous content
- GVS desorption: sample retains water until [3]: about 5%

SMILES: O=C(O)c1ccc2c(c1)nc(Nc1cccc(Cl)c1)c1ccncc12 [Form XXII-B, 5-(3-chlorophenylamino)benzo[c][2,6]naphthyridine-8-carboxylic acid]
- form after slurry by XRPD [1]: complete conversion to Form XXII

SMILES: O=C(O)c1ccc2c(c1)nc(Nc1cccc(Cl)c1)c1ccncc12 [Form XXI, 5-(3-chlorophenylamino)benzo[c][2,6]naphthyridine-8-carboxylic acid]
- relative stability of the two forms [1]: more stable
- DSC change after micronization [4]: no significant change
- XRPD change after micronization [4]: no significant change in crystalline structure
- change by XRPD and DSC [5]: no significant change
- HPLC impurity after storage [5]: no additional impurity
- d50, Average ([6]; micronized): 4.1 μm
- d90, Average ([6]; micronized): 8.0 μm
- d50, 3 times ([6]; micronized): 3.98 μm and 4.04 μm and 4.14 μm
- d90, 3 times ([6]; micronized): 7.90 μm and 7.94 μm and 8.13 μm
- d50, Average ([6]; pre-micronized): 21.6 μm
- d90, Average ([6]; pre-micronized): 71.0 μm
- d50, 3 times ([6]; pre-micronized): 19.97 μm and 21.13 μm and 23.60 μm
- d90, 3 times ([6]; pre-micronized): 62.36 μm and 70.79 μm and 79.85 μm
- ease of dissolution [7]: particularly easily dissolved

Source: patent publication US8853235B2, “Polymorphs and salts of a kinase inhibitor” (Senhwa Biosciences, Inc., priority 2009, dated 2014)
